System: NF-κB activation
Assay: Inhibitory activity against NF-κB activation, luciferase reporter assay under TNF-α stimulation
Format: cell-based, human
Conditions: HepG2 cells, TNF-α 40 ng/ml, 4 hours; for inhibition at 1 µg/mL / inhibition at 10 µg/mL: Homo sapiens, read-out: Inhibitory Ratio of NF-κ B Activation(%)
Experimental: Inhibitory activity against NF-κB activation was measured by referring to the method of Hill et al. (Cell, (USA), in 1993, Vol. 73, No. 2, p. 395-406). Using a transfection reagent(Effectene; QIAGEN), the human hepatoma cell strain HepG2 was transfected with a plasmid (pNFκ Luc Reporter Plasmid; STRATAGENE) integrated with an oligonucleotide having five tandem copies of NF-κB binding sequences(TGGGGACTTTCCGC) on a upstream region of firefly luciferase gene (Luc) according to the QIAGEN's protocol, and the cells were incubated for 6 to 24 hours. Then the cells were cultured for 4 hours after the addition of TNF-α (40 ng/ml) in the presence of a test compound, and intracellular luciferase activity was measured by using PicaGene LT (TOYO INK MFG Co., Ltd.) and a chemical luminescence measurement apparatus(SPECTRAFluor Plus; TECAN). The inhibitory ratio was measured as a ratio relative to a value of the luciferase activity in the absence of the test compound.

Row | Structure (SMILES) | inhibition at 1 µg/mL (Drug Concentration 1 μg/mL) | inhibition at 10 µg/mL (Drug Concentration 10 μg/mL) | Inhibitory Ratio of NF-κ B Activation(%) (Drug Concentration 1 μg/mL) | Inhibitory Ratio of NF-κ B Activation(%) (Drug Concentration 10 μg/mL)
1 | CC(C)C[C@H](NC(=O)OC(C)(C)C)C(=O)Oc1ccc(Cl)cc1C(=O)Nc1cc(C(F)(F)F)cc(C(F)(F)F)c1 [Compound 26, 2-[N-(tert-butoxycarbonyl)-L-leucyl]oxy-5-chloro-N-[3,5-bis(trifluoromethyl)phenyl]-benzamide] | 97.8% | 98.9% |  | 
2 | CC(C)(C)C(=O)OCOc1ccc(Cl)cc1C(=O)Nc1cc(C(F)(F)F)cc(C(F)(F)F)c1 [Compound 99] |  |  | 92.3% | 94.7%
3 | O=C(Nc1cc(C(F)(F)F)ccc1Cl)c1cc(Br)ccc1OC(=O)N1CCOCC1 [Compound 85, 5-Bromo-N-[2-chloro-5-(trifluoromethyl)phenyl]-2-[(morpholinocarbonyl)oxy]-benzamide] | 21.4% | 29.8% |  | 
4 | O=C(Nc1cc(C(F)(F)F)cc(C(F)(F)F)c1)c1cc(Cl)ccc1OP(=O)(OCc1ccccc1)OCc1ccccc1 [Compound 50, 5-chloro-2-(dibenzylphosphono)oxy-N-[3,5-bis(trifluoromethyl)phenyl]benzamide] | 90.7% | 97.1% |  | 
5 | O=C(Nc1cc(C(F)(F)F)ccc1Cl)c1cc(Br)ccc1OP(=O)([O-])O.[Na+] [Compound 136] |  |  | >99.9% | 
6 | O=C(Nc1cc(C(F)(F)F)cc(C(F)(F)F)c1)c1cc(Cl)ccc1OS(=O)(=O)O [Compound 49] |  |  | 80.1% | 99.0%
7 | CSc1ccc(NC(=O)Oc2cc3ccccc3cc2C(=O)Nc2ccccc2)cc1 [Compound 66] |  |  | 12.2% | 41.4%
8 | CC(=O)Oc1ccccc1C(=O)Oc1ccc(Cl)cc1C(=O)Nc1cc(C(F)(F)F)cc(C(F)(F)F)c1 [Compound 5] |  |  | 96.1% | 98.0%
9 | CC(C)(C)OC(=O)CC[C@H](NC(=O)OC(C)(C)C)C(=O)Oc1ccc(Cl)cc1C(=O)Nc1cc(C(F)(F)F)cc(C(F)(F)F)c1 [Compound 31, 2-[N-(tert-butoxycarbonyl)-γ-O-(tert-butyl)-α-L-glutamyl]oxy-5-chloro-N-[3,5-bis(trifluoromethyl)phenyl]benzamide] |  |  | 97.2% | 97.2%
10 | O=C(Nc1cc(C(F)(F)F)ccc1Cl)c1cc(Cl)ccc1OP(=O)([O-])O.[Na+] [Compound 125] |  |  | >99.9% | >99.9%
11 | CCCS(=O)(=O)Oc1ccc(Cl)cc1C(=O)Nc1cc(C(F)(F)F)cc(C(F)(F)F)c1 [Compound 45] |  |  | 84.7% | 95.4%
12 | CC(C)(C)OC(=O)CC(=O)Oc1ccc(Cl)cc1C(=O)Nc1cc(C(F)(F)F)cc(C(F)(F)F)c1 [Compound 17] |  |  | 97.0% | 96.8%
13 | O=C(O)CNC(=O)Oc1ccc(Cl)cc1C(=O)Nc1cc(C(F)(F)F)cc(C(F)(F)F)c1 [Compound 57, 2-[N-(carboxymethyl)carbamoyl]oxy-5-chloro-N-[3,5-bis(trifluoromethyl)phenyl]-benzamide] | 95.4% | 97.2% |  | 
14 | CC(C)C[C@H](NC(=O)[C@H](CC(=O)OC(C)(C)C)NC(=O)OC(C)(C)C)C(=O)Oc1ccc(Cl)cc1C(=O)Nc1cc(C(F)(F)F)cc(C(F)(F)F)c1 [Compound 37, 2-{N-[N-(tert-butoxycarbonyl)-β-O-(tert-butyl)-α-L-aspartyl]-L-leucyl}oxy-5-chloro-N-[3,5-bis(trifluoromethyl)phenyl]benzamide] |  |  | 96.6% | 98.1%
15 | O=c1oc2ccc(Cl)cc2c(=O)n1-c1cc(C(F)(F)F)cc(C(F)(F)F)c1 [Compound 113] | 96.8% | 97.9% |  | 
16 | O=C(NCc1ccccc1)Oc1ccc(Cl)cc1C(=O)Nc1cc(C(F)(F)F)cc(C(F)(F)F)c1 [Compound 55] |  |  | 97.1% | 99.1%

Reference: US7626042B2, “O-substituted hydroxyaryl derivatives” (Institute of Medicinal Molecular Design, Inc., priority 2002, dated 2009)
